Measured values taken from US20140287495A1, “Methods of Inducing Differentiation of Stem Cells” (ES Cell International Pte LTD, priority 2001, published 2014).

Columns and labels:
Brachyury T = test: Northern blot of Brachyury T expression in P19EC aggregates; assay type: cell-based, mouse; conditions: FIG. 10B
Description: (§1) END-2 cells and hES cells were cultured as described in Example 1. The hES2 cell line from ES Cell International Pte Ltd was used in all experiments. […] Co-cultures were then grown for up to 6 weeks and scored for the presence of areas of beating muscle from 5 days onwards. HepG2 cells, a carcinoma cell line resembling liver parenchymal cells (Knowles et al, (1980) Science 209:497-9), were cultured in DMEM plus 10% FCS and passaged twice weekly. […] Hanging-drop cultures of P19 EC cells were initiated and maintained in DMEM/Ham's F12 (1:1), as described previously (Mummery et al, 1991), using regular FCS while bulk production of P19 embryoid bodies in the presence or absence of END-2 conditioned medium for isolation of RNA for Northern blotting, was in the presence of charcoal-stripped FCS, as described (Mummery et al, 1991) to reduce background levels of cardiomyocyte differentiation caused by lipophilic substances possibly with retinoid-like activity in FCS. P19 clone 6 were cultured in aMEM and treated aMEM conditioned by END-2 cells. For electrophysiology, beating aggregates were dissociated using collagenase and replated on gelatine-coated coverslips.
RNA was isolated from P19 aggregates and poly A+RNA selected, as described previously (Mummery et al, 1990, Dev. Biol. 142: 406-413).
Background differentiation levels are reduced virtually to zero if the FCS is passed over an activated charcoal column (DCC-FCS) to remove residual retinoids; in addition, differentiation is blocked by activin (van den Eijnden-van Raaij et al, 1991, Mech. Dev. 33:157-166). […] The P19EC assay system was preferred because these cells are feeder independent for undifferentiated growth. […] Moreover, the induction of Brachyury T is blocked by the additional presence of activin (FIG. 10B), consistent with its ability to block the formation of beating muscle in aggregates. The transient expression of Brachyury T is similar to that observed during early mesoderm differentiation during gastrulation of the mouse embryo.

P19 EC cells [1] = conditions: END-2 conditioned medium induced differentiation; cited from earlier work
P19 EC cells [2] = test: Induction of beating muscle in replated P19 EC aggregates (hanging-drop assay); assay type: cell-based, mouse; conditions: P19EC aggregates, day 10
Description: as §1, with “coverslips. […]” for “coverslips.”

[3] = test system: hES-derived cardiomycytes; test: Beating of hES-derived cardiomyocytes in response to pharmacological agonists; assay type: cell-based, human; conditions: hES2/END-2 co-culture derived cardiomyocytes; basal beating 45-60 times per minute
Description: as §1
The majority of the experiments described here were carried out using the hES2 cell line (Reubinoff et al, 2000). […] Oct-4 expression thus correlated with phenotypic characteristics of undifferentiated cells. hES cells were subcultured by transferring small clumps of undifferentiated cells either to new, mit.C-treated MEFs or confluent cultures of mit.C-treated END-2 cells. After approximately 5d under these conditions, epithelial cells became evident which over the next few days become fluid-filled cysts (FIG. 1A). […] In addition, by 10 d areas of rhythmically contracting cells in more solid aggregates become evident (FIG. 1A,3e) with a variety of overall morphologies (FIG. 1B,3e). […]

For “activin: factor that blocks Brachyury T induction and the formation of beating muscle in aggregates”, the “DMSO induced Brachyury T expression in presence of activin” value (Brachyury T; P19EC aggregates) is listed as “blocked”, the “END-2 CM induced Brachyury T expression in additional presence of activin” value (Brachyury T; P19EC aggregates) is listed as “blocked” and the “cardiomyocyte differentiation of P19 EC aggregates in presence of activin” value (P19 EC cells [1]) is listed as “blocked”.

With `C[S+](C)[O-]` [DMSO, dimethyl sulphoxide] the “Brachyury T (early mesoderm marker) expression” value (Brachyury T; aggregation phase, first 3 days, Northern blot) was “induced” and the aggregates beating (P19 EC cells [2]) was “All aggregates beat”.

For `C[N+](C)(C)CCOC(N)=O` [carbachol], the “beating of hES-derived cardiomyocytes in response to agonist” value (“beating of hES-derived cardiomyocytes” for short) [3] was “upregulated”.

With `CNC[C@H](O)c1cccc(O)c1` [phenylephrine] the “beating of hES-derived cardiomyocytes” value [3] was “upregulated”.

For `CC(C)NCC(O)c1ccc(O)c(O)c1` (centres unmarked) [isoprenaline], the “beating of hES-derived cardiomyocytes” value [3] was “upregulated”.
